Results reported in paper PMC9379551, “Structure of cytosine transport protein CodB provides insight into nucleobase‐cation symporter 1 mechanism” (The EMBO Journal, 2022).

Tests used:
[1] = molecular target: T1, CodB (Proteus vulgaris, UniProt A0A6G6SKI1); experiment: GFP thermostability assay titration (Kd); inhibition of 3H-cytosine uptake in cells; type: binding; parameters: CodB from P. vulgaris expressed as CodB-GFP fusion, detergent-solubilised membranes
[2] = molecular target: T1, CodB; experiment: crystal structure at […] Å; GFP thermostability assay titration (Kd); sodium-dependent 3H-cytosine uptake in cells; type: binding; parameters: CodB from P. vulgaris expressed as CodB-GFP fusion (GFP-TS assay); cleaved with 3C protease for crystallisation

T1 sequence (A0A6G6SKI1 entry or part of it): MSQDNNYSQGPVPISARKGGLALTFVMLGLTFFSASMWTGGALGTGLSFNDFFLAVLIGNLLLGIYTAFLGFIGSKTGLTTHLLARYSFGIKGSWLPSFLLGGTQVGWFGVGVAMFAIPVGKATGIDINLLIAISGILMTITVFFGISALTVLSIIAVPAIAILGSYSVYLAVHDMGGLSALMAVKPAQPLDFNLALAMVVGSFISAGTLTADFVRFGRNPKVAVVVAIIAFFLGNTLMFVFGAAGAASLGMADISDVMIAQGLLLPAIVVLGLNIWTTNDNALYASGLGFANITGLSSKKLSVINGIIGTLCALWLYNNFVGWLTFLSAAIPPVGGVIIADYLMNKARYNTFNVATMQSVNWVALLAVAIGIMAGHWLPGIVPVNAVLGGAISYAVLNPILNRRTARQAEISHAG

Work on `Nc1nc(=O)[nH]cc1F` [5-fluorocytosine] yielded a Kd [1] of 285 ± 39 µM.
In the case of `Nc1cc[nH]c(=O)n1` [cytosine], the Kd [2] is reported as 51 ± 9 µM.
